Patent USRE50977E1, “Methods for production of platelets from pluripotent stem cells and compositions thereof” (Astellas Institute for Regenerative Medicine, priority 2012, dated 2026)

How the values were obtained:
[1] = tested on: iPS derived megakaryocytes; experiment: Platelet formation in static culture with MMP inhibitors; format: cell-based, human; details: for protection of platelets (CD42b shedding) compared with GM6001: comparative study of specific MMP inhibitors
Procedure: The peak of platelet production is determined by measuring platelet content in the culture, for example on a daily basis for several days. It is typically 4-7 days after the beginning of the MLP differentiation culture period, although it may be longer or it may be shifted. To induce MK maturation and platelet formation, freshly collected or thawed MKPs were cultured in MK maturation medium (MK-M) containing […]+TPO, SCF, IL-6 and […] Megakaryocyte Expansion Supplement) and heparin (5 U/ml) in ultralow attachment plates (Corning). 5 μM of Y-27632 was added for the first 3 days of culture, and cells were incubated in 7% CO2 at 39° C. Cell morphology and density were monitored daily and fresh medium was added to maintain 10^6 cells/ml for the first 4 days. The maturation of MKs from MKPs was monitored using flow cytometric analysis of CD41a, CD42b, and CD235a. Once pro-platelet morphology was observed, medium samples were taken daily to determine platelet yield using CD41a/CD42b double staining by flow cytometric analysis. Platelets were collected for 3-5 consecutive days during the peak of production. To extract platelets, large MKs were removed first using low speed centrifugation (50×g for 10 min), and proplatelets and small MKs were removed by further 10 min centrifugation at 300×g. The iPS-platelets in the supernatants were collected using higher g force (1000-2500×g) in the presence of PGE1 (1 μM). The collected iPS-platelet pellets were then subjected to further purification using a BSA gradient centrifugation as described previously (Robert et al., 2012). Briefly, iPS-platelet pellets were re-suspended with 1× CGS buffer. Platelets were applied in the buffer on top of a BSA gradient with BSA concentration of (weight/volume) of 12, 10, 7, 5 and 2%. The sample was centrifuged at 82×g for 15 min with no break, then the platelet-rich fraction was collected. iPS-platelets purified from BSA gradient were stored or transported at room temperature in MK-M for further analyses.

MKs derived from HA-iPS = experiment: Platelet generation under constant shear force in microfluidic device, HA-iPS derived MKs; format: cell-based, human
Procedure: Matured MKs, derived from HA-iPS and MA09 hES lines, were used. Equal numbers of MKs suspended in MK-specific medium were loaded into a microfluidic device in the presence or absence of 20 μM MMP inhibitor GM6001. Constant shear force was applied to the MKs throughout the culture period. MK-medium downstream of MKs was collected at 30 minute intervals for a period of 6 hours. Platelet number and purity (i.e., percentage of total cells that are CD41a^+CD42b^+) in the collected media were measured using flow cytometer.

c-myc gene expression = experiment: Q-PCR of MYC in MKPs treated with iBET151; format: cell-based, human; details: 0.1 and 0.25 μM
Procedure: (§1) As also described above in Example 10, we therefore determined whether suppression of c-myc expression would enhance MK lineage differentiation/expansion and simultaneously prohibit myeloid and other lineage differentiation/expansion. MKP Day 6+3 cultures were treated with non-cytotoxic doses of a c-myc inhibitor, iBET151 (0.1 and 0.25 μM) for 24 hours and then harvested for analysis. […] CD14+ myeloid cells were decreased from about 12% in control cultures to less than 5% and 3% in cultures treated with iBET151 at 0.1 and 0.25 μM, respectively.

[2] = tested on: cells undergoing in vitro megakaryopoiesis; experiment: iBET151 treatment of MKP Day 6+3 cultures; format: cell-based, human; details: for increase of MKP outputs vs untreated controls: 24 hours; for CD14+ myeloid cells: D6+3 to D6+4, control about 12%; for number/formation of CD14+ myeloid cells: 0.1 and 0.25 μM
Procedure: To promote early MK progenitor production, cells were cultured in MK-Specific Progenitor Expansion medium (EXP-M) containing STEMdiff APEL Medium+TPO (25 ng/ml), SCF (25 ng/ml), Flt-3 ligand (25 ng/ml), IL-3 (10 ng/ml), IL-6 (10 ng/ml) and heparin (5 U/ml) for up to 7 days. Non-adherent MK Progenitors (MKPs) were constantly released into the medium and harvested for 4-5 consecutive days in EXP-M. Daily harvests were cryo-preserved in animal protein-free defined cryopreservation CryoStor™ medium. Samples of MKPs were also subjected to flow cytometry for analysis of CD41a, CD42b, CD31, CD34, CD43, CD13, CD235a, and CD14 cell surface expression.
as §1

[3] = tested on: human and murine MLL-fusion leukemic cell lines; details: induction of early cell cycle arrest and apoptosis; cited from earlier work
GATA1 gene expression = experiment: Q-PCR of GATA1 in MKPs treated with iBET151; format: cell-based, human; details: 0.1 and 0.25 μM
Procedure: as §1

[4] = constant shear force, 20 μM added at beginning of culture, vs DMSO

For `CNC(=O)[C@H](Cc1c[nH]c2ccccc12)NC(=O)[C@@H](CC(=O)NO)CC(C)C` [GM6001], the “CD41b+/CD42b+ platelets” value ([1]; added in MK culture, control 45%) was 59%, the “platelet purity (percentage CD41a+CD42b+)” value (MKs derived from HA-iPS; [4]) was “significantly improved” and the platelet yield (MKs derived from HA-iPS; [4]) was “significantly improved”. The “platelet numbers as a function of time” value (MKs derived from HA-iPS; shear force culture, FIG. 23) was “significantly more platelets were generated”.
With `COc1cc2c(cc1-c1c(C)noc1C)ncc1[nH]c(=O)n([C@H](C)c3ccccn3)c12` [iBET151] the “c-myc (MYC) mRNA expression” value (c-myc gene expression) was “dose-dependent downregulation”, the “c-myc (MYC) mRNA expression” value (c-myc gene expression; listed as i-BET-151) was “dose-dependent inhibition” and the “increase of MKP outputs vs untreated controls” value ([2]; 0.1 μM) was “≈ 2 fold”. For the same compound, the “CD14+ myeloid cells” value ([2]; 0.1 μM) was “less than 5%”, the “increase of MKP outputs vs untreated controls” value ([2]; 0.25 μM) was roughly 4 fold and the “CD14+ myeloid cells” value ([2]; 0.25 μM) was less than 3%. For the same compound, the “number/formation of CD14+ myeloid cells” value [2] was “inhibited”, the “number/formation of CD14+ myeloid cells” value ([2]; listed as i-BET-151) was “dose-dependent decrease” and the apoptosis ([2]; high dose) was “massive apoptosis”. For the same compound, the “numbers of MK progenitors” value ([2]; lower doses, micromolar or submicromolar range) was “increased numbers of MK progenitors”, the “efficacy against leukemic cell lines” value [3] was “profound efficacy” and the “GATA1 mRNA expression” value (GATA1 gene expression) was “up-regulation”. For the same compound, the “GATA1 mRNA expression” value (GATA1 gene expression; listed as i-BET-151) was “up-regulated”.
With `COc1ccc(S(=O)(=O)N2Cc3ccccc3C[C@@H]2C(=O)NO)cc1` [MMP8-I, (3R)-(+)-[2-(4-Methoxybenzenesulfonyl)-1,2,3,4-tetrahydroisoquinoline-3-hydroxamate]] the “total number of CD41a+CD42b+ platelets, increase vs control” value ([1]; MK culture) was ~ 46%, the “protection of platelets (CD42b shedding) compared with GM6001” value [1] was “superior shedding protection than GM” and the “protection of platelets (CD42b shedding) compared with GM6001” value ([1]; listed as MMP8 inhibitor) was “more potency than GM6001”. The “CD41a+CD42b+ platelets produced as compared to GM6001” value ([1]; static culture) was “Significantly more”, the “purity gain over GM6001-treated cultures” value ([1]; static culture) was “approximately 10%” and the “purity of iPS-derived platelets” value ([1]; static culture, added at the peak of platelet production, control 43.7%) was 65.5%.
